Measurements reported in US12325708B2, “Adenosine 2 receptor antagonists” (Nektar Therapeutics, priority 2019, dated 2025).
≈ marks a conversion by molar mass, not a printed value.

Key:
[1] = Plasma protein binding (PPB), human; type: in vitro ADME; conditions: read-out: Plasma protein binding (PPB) (fu)
[2] = Hepatic clearance in vitro CLint, mouse liver microsomes; type: in vitro ADME
Solubility = type: physicochemical
[3] = Plasma pharmacokinetic parameters of Compound 1 in mice; type: in vivo; conditions: mouse, PO 30 mg/kg
Excerpt: (§1) Pharmacokinetic parameters were further estimated in vivo after IV or PO administration of Compound 1 in mice and dogs with the results provided in Table 4 below.

mouse CT-26 cells = assay: Antitumor activity in CT26 subcutaneous tumor model in Balb/c mice; type: in vivo; conditions: day 13 vs vehicle
Experimental: Mice used were ˜ 6-8 week-old female Balb/c mice subcutaneously inoculated with 2×10^6 mouse CT-26 cells. […] The mice were divided into six treatment groups as follows: vehicle (qdx9) PO+IP, Compound 1 (10 mg/kg, qdx9)+an exemplary anti-mouse PD1 (CD279) antibody (BioXCell) (200 μg/mouse, q2dx4); Compound 1 (30 mg/kg, qdx9)+anti-PD1 antibody (200 μg/mouse, q2dx4), Compound 1 (100 mg/kg)+anti-PD1 antibody (200 μg/mouse, q2dx4), anti-PD1 antibody (200 μg/mouse, q2dx4), or preladenant (30 mg/kg, qdx9)+anti-PD1 antibody (200 μg/mouse, q2dx4). Compound 1 and preladenant were administered orally. The anti-PD1 antibody was administered IP. Body weight was measured daily. Tumor growth of the CT26 cells was monitored three times per week by measuring the tumor volume size using a caliper with the results shown in FIG. 5.

[4] = Plasma protein binding (PPB), dog; type: in vitro ADME; conditions: read-out: Plasma protein binding (PPB) (fu)
[5] = Plasma protein binding (PPB), rat; type: in vitro ADME; conditions: read-out: Plasma protein binding (PPB) (fu)
[6] = Plasma protein binding (PPB), mouse; type: in vitro ADME; conditions: read-out: Plasma protein binding (PPB) (fu)
[7] = Brain-to-plasma ratio (B/P) after administration; type: in vivo, Sprague-Dawley rats; conditions: Table 2, brain-to-plasma ratio at 1 h
Summary of the method: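 Plasma pharmacokinetic parameters determined after oral (PO) administration; brain-to-plasma concentration ratio (B/P) used as the brain penetration measure.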

[8] = Hepatic clearance in vitro CLint, dog liver microsomes; type: in vitro ADME
A3 receptor = target: T1, A3 receptor (Homo sapiens, UniProt P0DMS8); assay: Radioligand receptor binding assay, A3 receptor; conditions: cell membranes overexpressing A3 receptor, read-out: Potency Ki A3
T1 construct: purchased
T1 sequence (P0DMS8 1-318): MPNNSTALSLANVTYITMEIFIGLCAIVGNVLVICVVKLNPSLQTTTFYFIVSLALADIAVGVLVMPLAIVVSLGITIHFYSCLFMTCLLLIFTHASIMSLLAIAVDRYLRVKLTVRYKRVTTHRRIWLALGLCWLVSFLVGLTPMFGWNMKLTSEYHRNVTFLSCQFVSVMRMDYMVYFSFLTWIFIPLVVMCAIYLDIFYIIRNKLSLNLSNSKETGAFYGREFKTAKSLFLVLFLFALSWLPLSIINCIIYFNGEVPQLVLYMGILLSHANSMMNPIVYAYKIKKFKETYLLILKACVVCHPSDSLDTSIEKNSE
Experimental: Using conventional receptor binding assay techniques, Compounds 1-24 were assayed to determine binding activity at the A2A, A1, and A3 receptors with the results shown in Table 7.
Receptor binding affinity of Compounds 1-24 was measured using radioligand binding assays using commercially obtained cell membranes prepared from cell lines overexpressing the A2A, A1, or A3 receptors. Briefly, cell membrane preparations from cells expressing the specific receptor were mixed with the appropriate [^3H]-labeled tracer for the specific receptor and the test compound or a known inhibitor of receptor-ligand binding. Following 60 min incubation at room temperature to allow receptor-ligand complex formation, the complexes were collected by filtration, washed with 50 mM Tris HCl (pH 7.5) to remove radioligand that was not receptor-bound, and the remaining radioactivity determined by liquid scintillation counting. Specific radioligand binding was calculated for each test compound concentration and IC50 values were determined by non-linear, regression analysis. Inhibition constants (Ki) were calculated using the equation of Cheng and Prusoff using the observed IC50 of the tested compound, the concentration of radioligand employed in the assay and the experimentally determined values for the Kd of the ligand.

[9] = Hepatic clearance in vitro CLint, human liver microsomes; type: in vitro ADME
[10] = Plasma pharmacokinetic parameters of Compound 1 in dogs; type: in vivo; conditions: dog
Excerpt: as §1

[11] = Permeability Caco-2 Papp and efflux ratio; type: in vitro ADME; conditions: human
[12] = Hepatic clearance in vitro CLint, rat liver microsomes; type: in vitro ADME

COCCOc1ccc(N2CCN(CCN(C)c3cc4nc(-c5ncco5)nn4c(N)n3)CC2)cc1 [Compound 1, N^7-(2-{4-[4-(2-methoxyethoxy)phenyl]piperazin-1-yl}ethyl)-N^7-methyl-2-(1,3-oxazol-2-yl)[1,2,4]triazolo[1,5-c]pyrimidine-5,7-diamine]
fraction unbound [1]: 0.39 | microsomal CLint [2]: 29 µL/min/mg | solubility (Solubility; pH ~3): ~5000 µM (≈ 2470 µg/mL) | solubility (Solubility; pH ~7): 20 to 40 µM (≈ 9.87 to 19.7 µg/mL) | AUC(0-inf) [3]: 5760 ng·h/mL | % TGI (mouse CT-26 cells; 10 mg/kg qdx9 PO + anti-PD1 antibody 200 μg/mouse q2dx4 IP): 34% | % TGI (mouse CT-26 cells; 30 mg/kg qdx9 PO + anti-PD1 antibody 200 μg/mouse q2dx4 IP): 41^1% | % TGI (mouse CT-26 cells; 100 mg/kg PO + anti-PD1 antibody 200 μg/mouse q2dx4 IP): 47^2% | fraction unbound [4]: 0.43 | fraction unbound [5]: 0.15 | fraction unbound [6]: 0.19 | B/P (1 h) [7]: 0.06^1 | microsomal CLint [8]: < 1 µL/min/mg | Ki (A3 receptor): > 10 µM | microsomal CLint [9]: 43 µL/min/mg | F ([10]; PO 1&10 mg/kg vs IV 0.2 mg/kg): >100% | clearance ([10]; plasma, IV 0.2 mg/kg): 12 mL/min/kg | half-life ([10]; plasma, IV 0.2 mg/kg): 6 h | Vd ([10]; plasma, IV 0.2 mg/kg, read-out: Vss): 5.2 L/kg | AUC(0-inf) ([10]; plasma, PO 1 mg/kg): 2020 ng·h/mL | AUC(0-inf) ([10]; plasma, PO 10 mg/kg): 17900 ng·h/mL | Papp [11]: 14.5 ×10⁻⁶ cm/s | efflux ratio ([11]; read-out: Efflux Ratio (ER)): 1.6 | microsomal CLint [12]: 17 µL/min/mg

COCCOc1cnc(N2CCN(CCN(C)c3cc4nc(-c5ncco5)nn4c(N)n3)CC2)c(F)c1 [Compound 4, N^7-(2-{4-[3-fluoro-5-(2-methoxyethoxy)pyridin-2-yl]piperazin-1-yl}ethyl)-N^7-methyl-2-(1,3-oxazol-2-yl)[1,2,4]triazolo[1,5-c]pyrimidine-5,7-diamine]
Kp at 1 h ([7]; Sprague-Dawley, rat): 0.04
